Data taken from the supplement of paper PMC10307832.

How the values were obtained:
Assay in all cases: relative viability (nuclei count vs DMSO), 5 days (fraction); higher = more cells survive
Dovitinib + Dasatinib = compound: CN1CCN(c2ccc3nc(-c4c(N)c5c(F)cccc5[nH]c4=O)[nH]c3c2)CC1 [Dovitinib] + Cc1nc(Nc2ncc(C(=O)Nc3c(C)cccc3Cl)s2)cc(N2CCN(CCO)CC2)n1 [Dasatinib] (partner 0.075 µM)
How it was run: (§1)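 Values are medians from duplicate plates. Each reflects relative viability, defined as the nuclei count of treated wells over that of vehicle wells. Lung cancer cell lines in 1536-well plates were pin-tool dosed one day after seeding with one drug alone or with a fixed anchor-drug dose plus five library-drug doses (not always all listed) in √10 steps, then fixed, stained and imaged at 4× after 5 days.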

Dovitinib + Palbociclib = compound: CN1CCN(c2ccc3nc(-c4c(N)c5c(F)cccc5[nH]c4=O)[nH]c3c2)CC1 [Dovitinib] + CC(=O)c1c(C)c2cnc(Nc3ccc(N4CCNCC4)cn3)nc2n(C2CCCC2)c1=O [Palbociclib] (partner 0.5 µM)
How it was run: as §1

Dovitinib + Alpelisib = compound: CN1CCN(c2ccc3nc(-c4c(N)c5c(F)cccc5[nH]c4=O)[nH]c3c2)CC1 [Dovitinib] + Cc1nc(NC(=O)N2CCC[C@H]2C(N)=O)sc1-c1ccnc(C(C)(C)C(F)(F)F)c1 [Alpelisib] (partner 2 µM)
How it was run: as §1

Dovitinib + Bortezomib = compound: CN1CCN(c2ccc3nc(-c4c(N)c5c(F)cccc5[nH]c4=O)[nH]c3c2)CC1 [Dovitinib] + CC(C)C[C@H](NC(=O)[C@H](Cc1ccccc1)NC(=O)c1cnccn1)B(O)O [Bortezomib] (partner 0.002 µM)
How it was run: as §1

Cell Line	relative viability (Dovitinib + Dasatinib; first compound 0.02 µM)	relative viability (Dovitinib + Dasatinib; first compound 0.06325 µM)	relative viability (Dovitinib + Dasatinib; first compound 0.2 µM)	relative viability (Dovitinib + Dasatinib; first compound 0.6325 µM)	relative viability (Dovitinib + Dasatinib; first compound 2 µM)	relative viability (Dovitinib + Palbociclib; first compound 0.02 µM)	relative viability (Dovitinib + Palbociclib; first compound 0.06325 µM)	relative viability (Dovitinib + Palbociclib; first compound 0.2 µM)	relative viability (Dovitinib + Palbociclib; first compound 0.6325 µM)	relative viability (Dovitinib + Palbociclib; first compound 2 µM)	relative viability (Dovitinib + Alpelisib; first compound 0.02 µM)	relative viability (Dovitinib + Alpelisib; first compound 0.06325 µM)	relative viability (Dovitinib + Alpelisib; first compound 0.2 µM)	relative viability (Dovitinib + Alpelisib; first compound 0.6325 µM)	relative viability (Dovitinib + Alpelisib; first compound 2 µM)	relative viability (Dovitinib + Bortezomib; first compound 0.02 µM)	relative viability (Dovitinib + Bortezomib; first compound 0.06325 µM)	relative viability (Dovitinib + Bortezomib; first compound 0.2 µM)	relative viability (Dovitinib + Bortezomib; first compound 0.6325 µM)	relative viability (Dovitinib + Bortezomib; first compound 2 µM)
NCI-H441	0.708	0.556	0.675	0.568	0.63	0.22	0.195	0.212	0.221	0.194	0.787	0.902	0.909	0.548	0.566	0.497	0.593	0.352	0.531	0.433
NCI-H1793	0.458	0.364	0.367	0.385	0.503	0.365	0.297	0.311	0.299	0.311	0.928	0.601	0.88	0.831	0.623	–	–	–	–	–
NCI-H23	0.837	0.729	0.976	0.731	0.734	0.482	0.58	0.574	0.515	0.541	0.788	0.638	0.766	0.631	0.627	0.925	1.02	1.01	1.05	1.22
HARA	0.319	0.152	0.275	0.226	0.291	0.29	0.234	0.311	0.254	0.258	0.791	0.908	0.778	0.853	0.705	1.26	1.16	1.01	1.17	1.2
NCI-H1792	0.873	0.738	0.775	0.793	0.803	0.642	0.668	0.684	0.583	0.643	0.674	0.617	0.745	0.725	0.676	0.938	0.935	0.998	1.04	0.918
NCI-H1703	–	–	–	–	–	–	–	–	–	–	0.291	0.418	0.346	0.264	0.276	0.47	0.335	0.18	0.328	0.291
NCI-H2342	0.339	0.324	0.337	0.298	0.318	0.621	0.517	0.553	0.621	0.537	–	–	–	–	–	–	–	–	–	–
CAL-12T	0.43	0.486	0.465	0.49	0.457	0.563	0.55	0.406	0.526	0.589	1.16	1.06	1.18	1.37	1.15	1.28	1	1.1	0.977	1.05
NCI-H727	0.482	0.393	0.422	0.395	0.385	0.667	0.62	0.669	0.671	0.668	0.673	0.642	0.476	0.48	0.47	0.937	0.733	0.92	0.845	1.27
NCI-H2085	0.234	0.261	0.235	0.248	0.319	0.481	0.476	0.477	0.415	0.493	1.05	0.987	0.88	0.936	1.03	1.05	1.1	1.03	1.21	1.06
NCI-H1395	0.448	0.423	0.437	0.402	0.425	0.608	0.575	0.661	0.605	0.652	1.07	0.988	1.11	1.09	1.12	–	–	–	–	–
NCI-H1648	–	–	–	–	–	0.325	0.287	0.235	0.247	0.255	–	–	–	–	–	–	–	–	–	–
NCI-H460	0.407	0.489	0.555	0.505	0.476	0.147	0.226	0.159	0.163	0.142	0.421	0.562	0.524	0.395	0.426	1.01	1.2	1.09	1.11	1.08
A549	–	–	–	–	–	–	–	–	–	–	0.802	0.757	0.701	0.801	0.671	–	–	–	–	–
IA-LM	–	–	–	–	–	–	–	–	–	–	0.732	0.78	0.854	0.911	0.765	0.787	1.01	0.666	0.837	0.772
EKVX	0.517	0.662	0.588	0.61	0.611	0.394	0.378	0.511	0.412	0.364	0.889	0.848	0.901	0.942	0.946	1.08	1.08	1.22	1.06	1.08
ChaGo-K-1	0.632	0.559	0.603	0.595	0.526	0.927	0.936	0.866	0.912	0.881	–	–	–	–	–	1.1	1.01	0.952	1.04	1.03
NCI-H1755	0.446	0.388	0.45	0.393	0.443	0.47	0.427	0.479	0.463	0.471	0.951	0.916	0.923	0.903	0.878	0.97	0.923	0.957	0.928	0.955
NCI-H2228	0.549	0.624	0.495	0.435	0.588	0.763	0.815	0.696	0.79	0.678	0.997	0.674	0.61	0.837	0.565	0.845	0.952	0.827	0.897	0.875
NCI-H2087	0.836	0.847	0.869	0.889	0.98	0.276	0.229	0.191	0.197	0.255	1.35	1.31	1.02	0.989	1.01	0.756	1.07	0.805	0.899	0.86
